Experimental data reported in US11634458B2, “Peptides and compositions for use in cosmetics and medicine” (LIPOTRUE, S.L., priority 2018, dated 2023).

Legend:
myosin heavy chain = test: Myosin heavy chain protein decrease by immunofluorescence; assay type: cell-based, human; settings: vs non-treated cells; for reduction of myosin heavy chain protein levels: 48 hours
Method: The potential of said peptide Ac-SEQ ID NO: 8-NH2 to decrease the expression of the protein myosin heavy chain in human skeletal muscle cells was evaluated in vitro by immunofluorescence using a specific antibody against this protein (Biotechne, USA) followed by a secondary fluorescent antibody (Thermofisher, USA). Briefly, human skeletal muscle myoblasts were seeded onto coverslips in SKM-M medium (Tebu-Bio, France) at a density of 3×10^4 cells/cm^2 and incubated overnight at standard culture conditions (37° C., 95% humidity, 5% CO2). Myoblast differentiation to myocyte was then induced with specific differentiation medium (Skeletal Muscle Cell Differentiation Medium, SKM-D medium) and monitored for 7 more days. Differentiated cells were treated with non-cytotoxic concentrations of peptide Ac-SEQ ID NO: 8-NH2 (0.05 mg/mL and 0.5 mg/mL) for additional 48 hours.
Once incubation was finished, cells were fixed with 4% PFA and permeabilized using 0.1% (v/v) Triton (Sigma, USA). Myosin was then stained with 0.5 mg/ml myosin heavy chain antibody during 2 h at room temperature. After proper washing, actin protein was labelled with 50 μg/ml Phalloidin (red) (Sigma, USA) for 1 h and, after washing, cells were stained with 4 μg/ml of the secondary antibody Goat anti-Mouse IgG for 1 h. Finally, nuclei were stained with 3.5 μg/ml Hoescht marker for 10 min (Sigma, USA).
Microscopic images were acquired using the 5× and 10× objectives. Three replicates were used for each condition and images of three to four fields of each coverslip were acquired using the same settings.
Images were analyzed using Image J software. Shortly, threshold was adjusted to select myosin and mean fluorescent was measured. The number of positive cells was counted using DAPI staining. Myosin mean fluorescent intensity was divided by the number of myosin-positive cells. Finally, all data was normalized as follows to obtain the % of myosin compared to non-treated cells: % vs. control=(fluorescence per cell in treated wells/fluorescence per cell in non-treated wells)×100.

LAN cells = test: Measurement of acetylcholine release in differentiated LAN cells stimulated with 50 mM KCl; assay type: cell-based; settings: 1 hour treatment, 0.001, 0.005 and 0.01 mg/mL (Ac-SEQ ID NO: 8-NH2: 0.005 and 0.05 mg/mL)
Method: Said peptides were tested for their ability to modulate acetylcholine release in vitro. To that end, LAN cells were seeded on 48-well culture plates and allowed to reach the appropriate confluence under controlled conditions (37° C., 5% CO2) before inducing differentiation by replacing the culture media with Neurobasal® A media, supplemented with N-2 Supplement, GlutaMAX™, choline chloride and Leukemia Inhibition factor (GIBCO, Life technologies, MA, USA). Once the cells acquired its differentiated morphology, they were treated with the peptides mentioned above at the following concentrations for 1 hour: all peptides, except Ac-SEQ ID NO: 8-NH2, at 0.001 mg/mL, 0.005 mg/mL and 0.01 mg/mL; and peptide Ac-SEQ ID NO: 8-NH2 at 0.005 mg/mL and 0.05 mg/mL. Cells were then washed with HEPES, before stimulation of acetylcholine release by depolarization with external 50 mM KCl solution. Non-stimulated cells were incubated with non-depolarizing 4 mM KCl solution. After 30 minutes of incubation with the corresponding depolarizing or non-depolarizing KCl solution, cell supernatants were collected and used to measure acetylcholine levels with Amplex Red Acetylcholine Assay Kit (ThermoFisher Scientific, MA, USA). Cell pellets were used to determine protein content by BCA Protein Test Assay (Pierce BCA Protein Assay kit, ThermoFisher Scientific, MA, USA) (for data normalization purposes).
Percentage of acetylcholine release inhibition was calculated considering 100% release for the positive control (non-treated stimulated with KCl cells).

SH-SY5Y cells = test: Exocytosis levels and delay (fluorescent exocytosis reporter); assay type: cell-based, human; settings: 0.01 mg/mL, 1 hour, PMA + ionomycin, vs non-treated cells
Method: The potential of said peptide Ac-SEQ ID NO: 8-NH2 to modulate the exocytosis of vesicles containing neurotransmitters from a neuroblastoma cell line was evaluated in vitro using SH-SY5Y cells, by fluorescence imaging using a Zeiss axiovert 200 inverted epifluorescence microscope with a 20× objective and a Xenon lamp.
SH-SY5Y cells (Sigma, USA) were cultured in T25 flasks in supplemented medium (DMEM/F12, Gibco, USA). Above 90% confluence, cells were trypsinized with 1 ml of 0.5% (v/v) Trypsin-EDTA. Next, 5 mL of said supplemented medium was added and cell concentration determined. Cells were seeded onto polyLysine-coated 12 mm-treated coverslips in 24 well-plates at 15×10^4 cells/well in supplemented medium (Gibco, USA) and incubated at regular conditions (37° C., 5% CO2). After 24 h cell seeding, cells were transfected with exocytosis reporter using Lipofectamine™ 3000 (Invitrogen, USA) following manufacturer's instructions. Reporter construct contained fusion protein made up of intraluminal-specific proteins and a pH-sensitive fluorescent protein.
For exocytosis monitorization, after 48 h of protein expression, cells were incubated with 0.01 mg/mL of Ac-SEQ ID NO: 8-NH2 peptide or 1 mg/mL of the benchmark acetyl hexapeptide-8 for 1 h at 37° C. and 5% CO2. Non-treated cells were used as basal control. […] Fluorescence imaging was done for the last 10 min of the stimulation protocol. Fluorescence signal of exocytosis reporter was monitored employing 483-512 nm excitation-filter and 525-530 nm emission-filter. […]
Non-treated cells were assayed in N=4 independent experiments with n=16 coverslips (483 cells measured), acetyl hexapeptide-8-treated cells in N=3 independent experiments with n=10 coverslips (328 cells measured) and Ac-SEQ ID NO: 8-NH2-treated cells in N=3 independent experiments with n=8 coverslips (240 cells measured). Cells were selected to individually monitor fluorescence intensity and time-course. Fluorescence peak evoked by ionomycin addition was used to quantify exocytosis by calculating the Area under the curve (AUC) using GraphPad software. Two parameters were defined and analyzed: • Exocytosis levels: For individual cells, total peak area was obtained from AUC analysis and was normalized by the baseline that was defined as fluorescence intensity 3-cycles before lonomycin injection. • Exocytosis delay: For individual cells, response time (min) was obtained from AUC analysis as time frame between lonomycin injection (Y) and initiation of peak (firstX).
Fluorescence values were further normalized as percentage change to non-treated cells on each experiment as: (exocytosis level of treated cells/exocytosis levels non-treated cells)×100 and (response time of treated cells/response time of non-treated cells)×100. […]

Substance: Ac-His-Ala-Leu-Arg-Phe-Trp-NH2 [Ac-SEQ ID NO: 8-NH2]
- reduction of myosin heavy chain protein levels (myosin heavy chain; 0.05 mg/mL): −26%
- myosin heavy chain protein levels (representative images, FIG. 5) (myosin heavy chain; 0.05 mg/mL): reduction of myosin heavy chain protein levels
- reduction of myosin heavy chain protein levels (myosin heavy chain; 0.5 mg/mL): −38%
- Result: modulation of acetylcholine release (LAN cells): Active in the modulation of
- change of exocytosis levels (SH-SY5Y cells): −14%
- exocytosis response time delay (SH-SY5Y cells): 24%
